Data published in US20250368649A1, “TETRAHYDROPYRIDOPYRIMIDINE PAN-KRAS INHIBITORS” (Mirati Therapeutics, Inc., priority 2022, published 2025).

Experiments:
A549 cells = experiment: Inhibition of KRas-mediated phosphorylation of ERK (Cisbio HTRF pERK), A549 cells; type: cell-based; details: Homo sapiens; for inhibition at 0.1 µM: single point at 100 nM, 3 hrs compound incubation; for IC50: A549, 3 h, 3 hr compound incubation, Cisbio pERK HTRF
KRas G12S = KRas G12S (Homo sapiens, UniProt P01116, G12S); type: binding; details: single point, 10 nM compound, read-out: Binding to KRas (% inhibition at 10 nM) G12S
HCT116 cells = experiment: Inhibition of KRas-mediated phosphorylation of ERK (Cisbio HTRF pERK), HCT116 cells; type: cell-based; details: Homo sapiens; for inhibition at 0.1 µM: HCT-116, single point at 100 nM, 3 hrs compound incubation; for IC50: HCT-116, 3 h, 3 hr compound incubation, Cisbio pERK HTRF
KRas WT = KRas WT (Homo sapiens, UniProt P01116); experiment: KRas binding assay (TR-FRET displacement), KRas WT; details: single point, 10 nM compound
PSN1 cells = experiment: Inhibition of KRas-mediated phosphorylation of ERK (Cisbio HTRF pERK), PSN1 cells; type: cell-based; details: Homo sapiens, PSN1, 3 h, 3 hour compound incubation, Cisbio pERK HTRF
Summary of the method: (§1)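 Growth medium is RPMI with 10% FBS, and each well receives 6,000 cells on the first day of the protocol.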

KRas G12A = KRas G12A (Homo sapiens, UniProt P01116, G12A); type: binding; details: single point, 10 nM compound, read-out: Binding to KRas (% inhibition at 10 nM) G12A
H727 cells = experiment: Inhibition of KRas-mediated phosphorylation of ERK (Cisbio HTRF pERK), H727 cells; type: cell-based; details: Homo sapiens; for IC50: NCI-H727, 3 h, 3 hr compound incubation, Cisbio pERK HTRF
KRas G12R = KRas G12R (Homo sapiens, UniProt P01116, G12R); experiment: biochemical; details: Binding to KRas (IC50 nM) G12R, TR-FRET displacement, KRas G12R
KRas G13D = KRas G13D (Homo sapiens, UniProt P01116, G13D); type: binding; details: single point, 10 nM compound, read-out: Binding to KRas (% inhibition at 10 nM) G13D
H358 cells = experiment: Inhibition of KRas-mediated phosphorylation of ERK (Cisbio HTRF pERK), H358 cells; type: cell-based; details: Homo sapiens; for inhibition at 0.1 µM: NCI-H358, single point at 100 nM, 3 hrs compound incubation; for IC50: NCI-H358, 3 h, 3 hr compound incubation, Cisbio pERK HTRF
H460 cells = experiment: Inhibition of KRas-mediated phosphorylation of ERK (Cisbio HTRF pERK), H460 cells; type: cell-based; details: Homo sapiens; for inhibition at 0.1 µM: NCI-H460, single point at 100 nM, 3 hrs compound incubation; for IC50: NCI-H460, 3 h, 3 hr compound incubation, Cisbio pERK HTRF
KRas Q61H = KRas Q61H (Homo sapiens, UniProt P01116, Q61H); experiment: KRas binding assay (TR-FRET displacement), KRas Q61H; details: single point, 10 nM compound
KRas G12D = KRas G12D (Homo sapiens, UniProt P01116, G12D); experiment: biochemical; details: Binding to KRas (IC50 nM) G12D, TR-FRET displacement, KRas G12D
MKN1 cells = experiment: Inhibition of KRas-mediated phosphorylation of ERK (Cisbio HTRF pERK), MKN1 cells; type: cell-based; details: Homo sapiens, MKN-1, 3 hour compound incubation, Cisbio pERK HTRF
Summary of the method: as §1

KRas G12V = KRas G12V (Homo sapiens, UniProt P01116, G12V); experiment: biochemical; details: Binding to KRas (IC50 nM) G12V, TR-FRET displacement, KRas G12V
KRas G12C = KRas G12C (Homo sapiens, UniProt P01116, G12C); type: binding; details: single point, 10 nM compound, read-out: Binding to KRas (% inhibition at 10 nM) G12C
ASPC1 cells = experiment: Inhibition of KRas-mediated phosphorylation of ERK (Cisbio HTRF pERK), ASPC1 cells; type: cell-based; details: Homo sapiens, AsPC-1 cells; for IC50: ASPC1, 3 h, 3 hr compound incubation, Cisbio pERK HTRF

Sequence of KRas G12V (P01116 1-169 isoform P01116-2 G12V): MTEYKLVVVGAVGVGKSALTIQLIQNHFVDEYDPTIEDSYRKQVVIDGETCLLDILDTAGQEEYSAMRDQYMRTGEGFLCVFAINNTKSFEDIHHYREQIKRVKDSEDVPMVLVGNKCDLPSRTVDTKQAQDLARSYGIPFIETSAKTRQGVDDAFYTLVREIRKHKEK
Sequence of KRas G12R (P01116 1-169 isoform P01116-2 G12R): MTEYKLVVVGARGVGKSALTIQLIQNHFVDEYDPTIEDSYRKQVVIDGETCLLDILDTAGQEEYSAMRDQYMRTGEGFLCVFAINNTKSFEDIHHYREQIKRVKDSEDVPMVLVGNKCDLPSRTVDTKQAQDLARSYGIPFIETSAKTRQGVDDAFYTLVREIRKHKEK
Sequence of KRas Q61H (P01116 1-169 isoform P01116-2 Q61H): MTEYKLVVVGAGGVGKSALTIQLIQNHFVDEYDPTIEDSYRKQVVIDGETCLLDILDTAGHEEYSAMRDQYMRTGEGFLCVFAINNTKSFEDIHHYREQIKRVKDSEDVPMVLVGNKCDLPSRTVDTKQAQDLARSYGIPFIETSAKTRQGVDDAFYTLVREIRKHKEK
Sequence of KRas G12A (P01116 1-169 isoform P01116-2 G12A): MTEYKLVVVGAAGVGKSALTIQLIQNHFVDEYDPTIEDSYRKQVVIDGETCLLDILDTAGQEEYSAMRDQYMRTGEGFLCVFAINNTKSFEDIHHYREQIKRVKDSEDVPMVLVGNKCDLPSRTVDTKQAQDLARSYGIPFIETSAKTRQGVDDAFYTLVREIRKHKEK
Sequence of KRas G13D (P01116 1-169 isoform P01116-2 G13D): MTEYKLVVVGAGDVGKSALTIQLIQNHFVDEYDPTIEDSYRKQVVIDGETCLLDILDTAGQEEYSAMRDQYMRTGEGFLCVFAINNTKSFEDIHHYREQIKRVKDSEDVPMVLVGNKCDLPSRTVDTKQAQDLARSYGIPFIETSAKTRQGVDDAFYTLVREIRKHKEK
Sequence of KRas G12D (P01116 1-169 isoform P01116-2 G12D): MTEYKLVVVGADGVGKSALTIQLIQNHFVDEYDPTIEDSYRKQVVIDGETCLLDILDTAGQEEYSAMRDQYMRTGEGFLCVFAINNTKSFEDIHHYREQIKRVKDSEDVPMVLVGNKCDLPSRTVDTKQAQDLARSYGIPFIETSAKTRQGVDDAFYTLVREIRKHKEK
Sequence of KRas G12C (P01116 1-169 isoform P01116-2 G12C): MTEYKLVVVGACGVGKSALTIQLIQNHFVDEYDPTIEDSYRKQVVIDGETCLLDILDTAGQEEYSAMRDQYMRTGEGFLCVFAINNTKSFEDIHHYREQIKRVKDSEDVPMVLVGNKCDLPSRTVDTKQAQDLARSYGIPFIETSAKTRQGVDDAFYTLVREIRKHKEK
Sequence of KRas G12S (P01116 1-169 isoform P01116-2 G12S): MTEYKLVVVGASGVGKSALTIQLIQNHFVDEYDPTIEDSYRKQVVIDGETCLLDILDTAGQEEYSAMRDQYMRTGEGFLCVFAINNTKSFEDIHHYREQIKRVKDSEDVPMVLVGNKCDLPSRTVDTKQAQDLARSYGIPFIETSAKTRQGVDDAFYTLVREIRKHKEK
Sequence of KRas WT (P01116 1-169 isoform P01116-2): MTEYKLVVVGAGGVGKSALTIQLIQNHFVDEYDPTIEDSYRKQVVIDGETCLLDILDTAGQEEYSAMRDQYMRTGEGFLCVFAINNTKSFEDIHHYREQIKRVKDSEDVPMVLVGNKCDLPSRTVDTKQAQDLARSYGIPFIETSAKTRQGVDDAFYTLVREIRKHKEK

Compound | inhibition at 0.1 µM (A549 cells) [%] | inhibition at 0.01 µM (KRas G12S) [%] | inhibition at 0.01 µM (KRas WT) [%] | IC50 (PSN1 cells) [nM] | inhibition at 0.01 µM (KRas G12A) [%] | IC50 (H727 cells) [nM] | IC50 (KRas G12R) [nM] | inhibition at 0.01 µM (KRas G13D) [%] | inhibition at 0.1 µM (H358 cells) [%] | inhibition at 0.1 µM (H460 cells) [%] | inhibition at 0.01 µM (KRas Q61H) [%] | IC50 (KRas G12D) [nM] | IC50 (MKN1 cells) [nM] | IC50 (KRas G12V) [nM] | inhibition at 0.01 µM (KRas G12C) [%] | IC50 (ASPC1 cells) [nM] | IC50 (A549 cells) [nM] | IC50 (HCT116 cells) [nM] | IC50 (H358 cells) [nM] | IC50 (H460 cells) [nM] | other results
CCc1c(F)ccc2cc(O)cc(N3CCc4c(nc(OC[C@@]56CCCN5C[C@H](F)C6)nc4N4CCCn5nc(C(=O)N(C)C)c(C(C)C)c5C4)C3)c12 [Example 295, 5-(7-(8-ethyl-7-fluoro-3-hydroxynaphthalen-1-yl)-2-(((2R,7aS)-2-fluorohexahydro-1H-pyrrolizin-7a-yl)methoxy)-5,6,7,8-tetrahydropyrido[3,4-d]pyrimidin-4-yl)-3-isopropyl-N,N-dimethyl-5,6,7,8-tetrahydro-4H-pyrazolo[1,5-a][1,4]diazepine-2-carboxamide] | 60 | 99 | 99 | > 10000 | 99 | 23 | < 2 | 98 | 97 | 84 | 98 | < 2 | 3.5 | < 2 | 99 | 20 |  |  |  |  | inhibition at 0.1 µM (HCT116 cells): 63%
CCc1c(F)ccc2cc(O)cc(N3CCc4c(nc(OC[C@@]56CCCN5C[C@H](F)C6)nc4N4CCCn5nc(C(=O)N(C)C)c(C6CC6)c5C4)C3)c12 [Example 294, 3-cyclopropyl-5-(7-(8-ethyl-7-fluoro-3-hydroxynaphthalen-1-yl)-2-(((2R,7aS)-2-fluorohexahydro-1H-pyrrolizin-7a-yl)methoxy)-5,6,7,8-tetrahydropyrido[3,4-d]pyrimidin-4-yl)-N,N-dimethyl-5,6,7,8-tetrahydro-4H-pyrazolo[1,5-a][1,4]diazepine-2-carboxamide] | 82 | 100 | 98 | 3800 | 98 | 10 | < 2 | 98 | 100 | 90 | 98 | < 2 | 4 | < 2 | 100 | 4 | 7 | 41 | 2 | 15 | inhibition at 0.1 µM (HCT116 cells): 72%
CCc1c(F)ccc2cc(O)cc(N3CCc4c(nc(OC[C@@]56CCCN5C[C@H](F)C6)nc4N4CCCn5nc(C(=O)N(C)C)c(COC)c5C4)C3)c12 [Example 269, 5-(7-(8-ethyl-7-fluoro-3-hydroxynaphthalen-1-yl)-2-(((2R,7aS)-2-fluorohexahydro-1H-pyrrolizin-7a-yl)methoxy)-5,6,7,8-tetrahydropyrido[3,4-d]pyrimidin-4-yl)-3-(methoxymethyl)-N,N-dimethyl-5,6,7,8-tetrahydro-4H-pyrazolo[1,5-a][1,4]diazepine-2-carboxamide] | 93 | 100 | 99 | 9880 | 99 | 5 | < 2 | 99 | 100 | 89 | 98 | < 2 | 1.4 | < 2 | 100 | 3 | 2 | 25 | 1 | 8 | 
CCc1c(F)ccc2cc(O)cc(N3CCc4c(nc(OC[C@@]56CCCN5C[C@H](F)C6)nc4N4CCCn5nc(C(=O)NC6CCC6)cc5C4)C3)c12 [Example 378, N-cyclobutyl-5-(7-(8-ethyl-7-fluoro-3-hydroxynaphthalen-1-yl)-2-(((2R,7aS)-2-fluorohexahydro-1H-pyrrolizin-7a-yl)methoxy)-5,6,7,8-tetrahydropyrido[3,4-d]pyrimidin-4-yl)-5,6,7,8-tetrahydro-4H-pyrazolo[1,5-a][1,4]diazepine-2-carboxamide] | 69 | 96 | 91 | 5170 | 90 | 7 | < 2 | 90 | 105 |  | 91 | < 2 | 26.2 | < 2 | 97 | 3 | 39 | 160 | 9 | 46 | 
CCc1c(F)ccc2cc(O)cc(N3CCc4c(nc(OC[C@@]56CCCN5C[C@H](F)C6)nc4N4CCCn5nc(C(=O)N6C[C@H](C)N[C@@H](C)C6)cc5C4)C3)c12 [Example 282, ((3S,5S)-3,5-dimethylpiperazin-1-yl)(5-(7-(8-ethyl-7-fluoro-3-hydroxynaphthalen-1-yl)-2-(((2R,7aS)-2-fluorohexahydro-1H-pyrrolizin-7a-yl)methoxy)-5,6,7,8-tetrahydropyrido[3,4-d]pyrimidin-4-yl)-5,6,7,8-tetrahydro-4H-pyrazolo[1,5-a][1,4]diazepin-2-yl)methanone] | 37 | 100 | 98 | > 10000 | 98 | 128 | < 2 | 99 | 88 | 35 | 99 | < 2 | 35.1 | < 2 | 99 | 9 | 53 | 172 | 16 | 93 | inhibition at 0.1 µM (HCT116 cells): 12%
CCc1c(F)ccc2cc(O)cc(N3CCc4c(nc(OC[C@@]56CCCN5C[C@H](F)C6)nc4N4CCCn5nc(C(=O)N6C7CCCC6CC7)cc5C4)C3)c12 [Example 341, 8-azabicyclo[3.2.1]octan-8-yl(5-(7-(8-ethyl-7-fluoro-3-hydroxynaphthalen-1-yl)-2-(((2R,7aS)-2-fluorohexahydro-1H-pyrrolizin-7a-yl)methoxy)-5,6,7,8-tetrahydropyrido[3,4-d]pyrimidin-4-yl)-5,6,7,8-tetrahydro-4H-pyrazolo[1,5-a][1,4]diazepin-2-yl)methanone] | 75 | 96 | 93 | 4530 | 87 | 9 | 2 | 92 | 91 | 77 | 95 | 2 | 6.7 | < 2 | 97 | 8 | 19 | 141 | 3 | 42 | inhibition at 0.1 µM (HCT116 cells): 47%; inhibition at 0.1 µM (H727 cells; NCI-H727, single point at 100 nM, 3 hrs compound incubation): 76%; inhibition at 0.1 µM (ASPC1 cells; ASPC1, single point at 100 nM, 3 hrs compound incubation): 95%
